From patent US12084434B2 (Scorpion Therapeutics, Inc., priority 2021, dated 2024)
pIC50: −log10 of the molar value.

tested on: T47D pAKT (S473), PI3Kα H1047R mutation present; test: HTRF pAKT-T47D; details: Homo sapiens, T47D, 1 h, read-out: T47D pAKT IC50 (nM);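 also: assay medium was RPMI with 10% FBS and 0.2 units/ml bovine insulin, without phenol red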
Method: Homogenous Time-Resolved Fluorescence (HTRF)—pAKT-T47D
Compounds were assayed using homogeneous time-resolved fluorescence (HTRF).
Gibco RPMI 1640 Medium, no phenol red; Gibco RPMI 1640 Medium; Gibco Trypsin-EDTA (0.5%), no phenol red; Gibco DPBS; Trypan blue solution 0.4% (Corning); Avantor Seradigm Premium Grade Fetal Bovine Serum (FBS); Greiner 784080-384 well TC treated white plates; pAKT (Ser473) HTRF; Gibco Insulin, human recombinant, zinc solution; Gibco Recovery Cell Culture Freezing Medium; Countess II FL Automated Cell Counter (ThermoFisher); Countess II Slides (ThermoFisher); Microscope; and PHERAstar FSX Microplate Reader (BMG LABTECH, Inc.).
The scinamic cell line ID was T47D.1, the HTRF detection was pAKT (S473), a PI3Kα H1047R mutation was present, the seeding density was 5000, the timepoint was 1 hour, and the medium used was RPMI+10% FBS (no phenol red)+0.2 units/ml bovine insulin.
• The cell density was not permitted to reach 100% confluence. The cells were split 1:5 when they reached ˜80% confluence. • Cells were split twice a week (Mon and Fri). • Cells over passage 18 were not used (˜2 months of maintenance). • Antibiotics were not used for tissue culture maintenance or assays. […] Protocol Day1
The procedure was as follows: • 1. Prepared ARP: • a. Stamped 12.5 nL from 10 μmM source plate to destination plate using Echo. Sealed plate immediately and froze at −20° C. if it was not used on the same day. • b. If a frozen ARP was used, the plate was thawed and spun at 1000 rpm×1 min. • 2. Preparation of cells (adherent): • a. Aspirated media from cells. Washed cells with sterile 1XPBS. Aspirated PBS and added appropriate amount of Trypsin. • b. Once cells were fully trypsinized, added appropriate media to resuspend cells. Transferred cells to a 15 mL or 50 mL conical tube. • c. Counted cells on the Countess II Cell Counter. • 3. Plating of cells: • a. Prepared cells at appropriate plating density. Dispensed 12 μL of diluted cells per well of a Greiner 784080-384 well TC treated white plate using a Multidrop Combi to columns 1-23. Added 12 uL of appropriate phenol free media only to column 24. • b. Placed plates in 37° C. tissue culture incubator for appropriate treatment time (refer to “Assay” table). • 4. Prepared HTRF Lysis Buffer • a. Calculate the amount of HTRF lysis buffer master mix needed to perform the desired experiments plus any extra dead volume required for dispensing (4 μL required per well). […] Add 4 uL Lysis buffer master mix to all wells with sample or DMSO. Centrifuge the plates for 1 minute at 1000 rpm. • c. Incubate at room temperature for 30 minutes. • 5. Prepared HTRF Antibody • a.

Structure (SMILES)	IC50 [nM]
CC(=O)Nc1ncc(NC(=O)N[C@H](c2oc3ccc(F)cc3c2C)C(C)C)cn1 [Compound 159]	< 1000

same assay, conditions: Homo sapiens, T47D, 1 h, read-out: T47D pAKT IC50 (nM), T47D.1 cells, pAKT (S473) HTRF, 1 hour

Structure (SMILES)	IC50 [nM]
Cc1c([C@H](NC(=O)Nc2cnc(N3CC[C@H](O)C3)nc2)C(F)(F)F)oc2c(F)cc(F)cc12 [Compound 210]	> 5000
Cc1c([C@@H](NC(=O)Nc2cnc(N3CCNC3=O)nc2)C(C)C)oc2ccc(F)cc12 [Compound 161, 3-[(1S)-1-(5-fluoro-3-methyl-1-benzofuran-2-yl)-2-methylpropyl]-1-[2-(2-oxoimidazolidin-1-yl)pyrimidin-5-yl]urea]	< 1000
Cc1c([C@@H](NC(=O)Nc2ccc3c(c2)C(=O)N(C)C3)C(C)C)oc2ccc(F)cc12 [Compound 103]	1000 to 5000
CCC1(O)CN(c2ncc(NC(=O)N[C@H](c3oc4ccc(F)cc4c3C)C(C)C)cn2)C1 [Compound 144]	< 1000
CNC(=O)C1CN(c2ncc(NC(=O)N[C@H](c3oc4ccc(F)cc4c3C)C(C)C)cn2)C1 [Compound 163, 1-[5-({[(1S)-1-(5-fluoro-3-methyl-1-benzofuran-2-yl)-2-methylpropyl]carbamoyl}amino)pyrimidin-2-yl]-N-methylazetidine-3-carboxamide]	< 1000
Cc1c([C@@H](NC(=O)Nc2cnc(N3CC[C@H](O)C3)nc2)C(F)(F)F)oc2c(F)cc(F)cc12 [Compound 209]	< 1000
Cc1c([C@@H](NC(=O)Nc2cnc(N3CCS(=N)(=O)CC3)nc2)C(C)C)oc2ccc(F)cc12 [Compound 147, 3-[(1S)-1-(5-fluoro-3-methyl-1-benzofuran-2-yl)-2-methylpropyl]-1-[2-(1-imino-1-oxo-1lambda6-thiomorpholin-4-yl)pyrimidin-5-yl]urea]	< 1000
Cc1c([C@@H](NC(=O)Nc2cnc(N3C[C@@H](O)[C@@H]3C)nc2)C(F)(F)F)oc2ccc(F)cc12 [Compound 170]	< 1000
Cc1c([C@@H](NC(=O)Nc2cnc(N3C[C@@H](O)[C@@H]3C)nc2)C(C)C)oc2ccc(F)cc12 (relative stereo) [Compound 148, 3-[(1S)-1-(5-fluoro-3-methyl-1-benzofuran-2-yl)-2-methylpropyl]-1-{2-[(2R*,3R**)-3-hydroxy-2-methylazetidin-1-yl]pyrimidin-5-yl}urea]	< 1000
Cc1c([C@H](C)NC(=O)Nc2cnc(N)nc2)oc2ccc(F)cc12 [Compound 101, (S)-1-(2-aminopyrimidin-5-yl)-3-(1-(5-fluoro-3-methylbenzofuran-2-yl)ethyl)urea]	1000 to 5000
Cc1c([C@@H](NC(=O)Nc2cccc(-c3nnnn3C)c2)C(C)C)oc2ccc(F)cc12 [Compound 125, (S)-1-(1-(5-fluoro-3-methylbenzofuran-2-yl)-2-methylpropyl)-3-(3-(1-methyl-1H-tetrazol-5-yl)phenyl)urea]	1000 to 5000
Cc1c([C@@H](NC(=O)Nc2ccc3nc[nH]c(=O)c3c2)C(C)C)oc2ccc(F)cc12 [Compound 124, (S)-1-(1-(5-fluoro-3-methylbenzofuran-2-yl)-2-methylpropyl)-3-(4-oxo-3,4-dihydroquinazolin-6-yl)urea]	1000 to 5000
Cc1c([C@@H](NC(=O)Nc2cnc(N3CC(C)(O)C3)nc2)C(F)(F)F)oc2ccc(F)cc12 [Compound 98, (R)-1-(2-(3-hydroxy-3-methylazetidin-1-yl)pyrimidin-5-yl)-3-(2,2,2-trifluoro-1-(5-fluoro-3-methylbenzofuran-2-yl)ethyl)urea]	< 1000
Cc1c([C@@H](NC(=O)Nc2cnc(N3CCC(O)CC3)nc2)C(C)C)oc2ccc(F)cc12 [Compound 140]	< 1000
COC(=O)Nc1ncc(NC(=O)N[C@H](c2oc3ccc(F)cc3c2C)C(C)C)cn1 [Compound 162, methyl N-[5-({[(1S)-1-(5-fluoro-3-methyl-1-benzofuran-2-yl)-2-methylpropyl]carbamoyl}amino)pyrimidin-2-yl]carbamate]	< 1000
Cc1c([C@@H](NC(=O)Nc2cnc(N3CC4(CNC(=O)CO4)C3)nc2)C(C)C)oc2ccc(F)cc12 [Compound 166, 3-[(1S)-1-(5-fluoro-3-methyl-1-benzofuran-2-yl)-2-methylpropyl]-1-(2-{7-oxo-5-oxa-2,8-diazaspiro[3.5]nonan-2-yl}pyrimidin-5-yl)urea]	< 1000
Cc1c([C@@H](NC(=O)Nc2cnc(OCC3(O)CC3)nc2)C(C)C)oc2ccc(F)cc12 [Compound 152]	< 1000
Cc1c([C@@H](NC(=O)Nc2cnc(N3CCS(=O)(=O)CC3)nc2)C(C)C)oc2ccc(F)cc12 [Compound 146, 1-[2-(1,1-dioxo-1lambda6-thiomorpholin-4-yl)pyrimidin-5-yl]-3-[(1S)-1-(5-fluoro-3-methyl-1-benzofuran-2-yl)-2-methylpropyl]urea]	< 1000
Cc1c([C@@H](NC(=O)Nc2cnc(N3CC(C(C)(C)O)C3)nc2)C(F)(F)F)oc2c(F)cc(F)cc12 [Compound 205]	< 1000
Cc1c([C@H](NC(=O)Nc2ccc3[nH]ncc3c2)C(F)(F)F)oc2c(F)cc(F)cc12 [Compound 193, 3-[(1S)-1-(5,7-difluoro-3-methyl-1-benzofuran-2-yl)-2,2,2-trifluoroethyl]-1-(1H-indazol-5-yl)urea]	> 5000
Cc1c([C@@H](NC(=O)Nc2cnc(NC3COC3)nc2)C(C)C)oc2ccc(F)cc12 [Compound 136]	< 1000
Cc1c([C@@H](NC(=O)Nc2cnc(N3CC(S(C)(=O)=O)C3)nc2)C(C)C)oc2ccc(F)cc12 [Compound 128, (S)-1-(1-(5-fluoro-3-methylbenzofuran-2-yl)-2-methylpropyl)-3-(2-(3-(methylsulfonyl)azetidin-1-yl)pyrimidin-5-yl)urea]	1000 to 5000
CC[C@H](NC(=O)Nc1cnc(N)nc1)c1oc2ccc(F)cc2c1C (single isomer, unassigned) [Compound 100]	< 1000
Cc1c([C@@H](NC(=O)Nc2ccc(Cl)c(S(C)(=O)=O)c2)C(C)C)oc2ccc(F)cc12 [Compound 126, (S)-1-(4-chloro-3-(methylsulfonyl)phenyl)-3-(1-(5-fluoro-3-methylbenzofuran-2-yl)-2-methylpropyl)urea]	1000 to 5000

same assay, conditions: read-out: T47D pAKT IC50; T47D.1 cells, pAKT (S473) HTRF, 1 hour

Structure (SMILES)	pIC50
Cc1c(C(NC(=O)Nc2cnc(N3CC4(COC4)C3)nc2)C(F)(F)F)oc2c(F)cc(F)cc12 (racemic) [Compound 172, 1-(2-(2-oxa-6-azaspiro[3.3]heptan-6-yl)pyrimidin-5-yl)-3-(1-(5,7-difluoro-3-methylbenzofuran-2-yl)-2,2,2-trifluoroethyl)urea]	> 6.00
Cc1c(C(NC(=O)Nc2cnc(N[C@H](C)CO)nc2)C(F)(F)F)oc2c(F)cc(F)cc12 (single isomer, unassigned) [Compound 187]	< 5.30
Cc1c(C(NC(=O)Nc2cnc(N3CCNC(=O)C3)nc2)C(F)(F)F)oc2c(F)cc(F)cc12 (single isomer, unassigned) [Compound 189, 1-(1-(5,7-difluoro-3-methylbenzofuran-2-yl)-2,2,2-trifluoroethyl)-3-(2-(3-oxopiperazin-1-yl)pyrimidin-5-yl)urea]	> 6.00
Cc1c(C(NC(=O)Nc2ccc(N)nc2)C(F)(F)F)oc2c(F)cc(F)cc12 (stereo not drawn) [Compound 181]	< 5.30
CCc1c(C(NC(=O)Nc2cnc(N)nc2)C(F)(F)F)oc2ccc(F)cc12 (racemic) [Compound 132, 1-(2-aminopyrimidin-5-yl)-3-[1-(3-ethyl-5-fluoro-1-benzofuran-2-yl)-2,2,2-trifluoroethyl]urea]	> 6.00
Cc1c(C(NC(=O)Nc2ccc(N3CC(O)C3)nc2)C(F)(F)F)oc2c(F)cc(F)cc12 (racemic) [Compound 179, 3-[1-(5,7-difluoro-3-methyl-1-benzofuran-2-yl)-2,2,2-trifluoroethyl]-1-[6-(3-hydroxyazetidin-1-yl)pyridin-3-yl]urea]	< 5.30
Cc1c(C(NC(=O)Nc2cnc(N3CCC(O)CC3)nc2)C(F)(F)F)oc2c(F)cc(F)cc12 (single isomer, unassigned) [Compound 192]	> 6.00
Cc1c(C(NC(=O)Nc2cnc(N)nc2)C(F)(F)F)oc2c(C3CC3)cc(F)cc12 (single isomer, unassigned) [Compound 218, 1-(2-aminopyrimidin-5-yl)-3-[1-(7-cyclopropyl-5-fluoro-3-methyl-1-benzofuran-2-yl)-2,2,2-trifluoroethyl]urea]	> 6.00
Cc1c(C(NC(=O)Nc2cnc(N3CC(O)C3)nc2)C(F)(F)F)oc2ccc(Cl)cc12 (racemic) [Compound 153, 3-[1-(5-chloro-3-methyl-1-benzofuran-2-yl)-2,2,2-trifluoroethyl]-1-[2-(3-hydroxyazetidin-1-yl)pyrimidin-5-yl]urea]	< 5.30
Cc1c(C(NC(=O)Nc2ccc(N3CC(O)C3)nc2)C(F)(F)F)oc2c(F)cc(F)cc12 (racemic) [Compound 180, 3-[1-(5,7-difluoro-3-methyl-1-benzofuran-2-yl)-2,2,2-trifluoroethyl]-1-[6-(3-hydroxyazetidin-1-yl)pyridin-3-yl]urea]	> 6.00
Cc1c(C(NC(=O)Nc2cnc(N3CC(C(=O)O)C3)nc2)C(F)(F)F)oc2c(F)cc(F)cc12 (single isomer, unassigned) [Compound 197, 1-[5-({[1-(5,7-difluoro-3-methyl-1-benzofuran-2-yl)-2,2,2-trifluoroethyl]carbamoyl}amino)pyrimidin-2-yl]azetidine-3-carboxylic acid]	> 6.00
C[C@@H]1[C@@H](O)CN1c1ncc(NC(=O)NC(c2cc3cc(F)cc(F)c3o2)C(F)(F)F)cn1 (stereo partly drawn) [Compound 173, 3-[1-(5,7-difluoro-1-benzofuran-2-yl)-2,2,2-trifluoroethyl]-1-{2-[(2R,3S)-3-hydroxy-2-methylazetidin-1-yl]pyrimidin-5-yl}urea]	< 5.30
Cc1c(C(NC(=O)Nc2cnc(N3CC4(COC4)C3)nc2)C(F)(F)F)oc2c(F)cc(F)cc12 (racemic) [Compound 171, 1-(2-(2-oxa-6-azaspiro[3.3]heptan-6-yl)pyrimidin-5-yl)-3-(1-(5,7-difluoro-3-methylbenzofuran-2-yl)-2,2,2-trifluoroethyl)urea]	< 5.30
Cc1c([C@@H](NC(=O)Nc2cnc(NCC(C)(C)O)nc2)C(F)(F)F)oc2c(F)cc(F)cc12 [Compound 183]	> 6.00
